This is an account of results in US9827181B2, “Method and pharmaceutical composition for hair growth” (INDUSTRIAL TECHNOLOGY RESEARCH INSTITUTE, priority 2013, dated 2017).

“Also recorded” adds a separate entry of the source.

Assay [1] relates to hair follicles on the dorsal skin of female C57BL/6 mice. In words: mouse model of hair regeneration (dorsal skin, refractory telogen phase).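 Also: mice roughly 8 weeks old, negative control skin section treated with 100% alcohol, regrowth checked daily with day counted from start of dosing.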 The note with it: high dosage level (2000 μM) on dorsal skin, once a day for 10 days, negative = no hair growth.
Description: The mouse model adopts female C57BL/6 mice (about 8 weeks).
In the present disclosure, the sample solution is applied on the dorsal skin, where the hair follicle stays at the refractory telogen phase, to observe whether the peptides are beneficial to hair growth.
The sample solution is applied on each of the sections for 10 days. The administration of the sample solution includes, but not limited to, the injection (50 μl) and the coating (10 μl). In addition, the dosage of the sample solution includes, but not limited to, the high dosage level (2000 μM) and the low dosage level (200 μM).
In order to avoid experimental error due to manual operation, a positive control and a negative control are predetermined on two sections. […] The second section 2 is coated with high dosage level of HGP or the pharmaceutical composition for 10 days (once a day). The third section 3 is coated with low dosage level of HGP or the pharmaceutical composition for 10 days (once a day). The fourth section 4 is coated with 100% alcohol for 10 days (once a day). The fourth section 4 is regarded as the negative control. The fifth section 5 is continuously injected with the high dosage of HGP or pharmaceutical composition for 10 days (once a day). The sixth section 6 is continuously injected with the low dosage of HGP or pharmaceutical composition for 10 days (once a day). The HGP prepared for the sections is the same amino acid sequence.
HGP or pharmaceutical composition having the same as referred at the table 1 is implemented through the above-mentioned process and then the hair regeneration condition is recorded everyday. Since the period of the refractory telogen phase is 28 days, it is regards as a negative result that no hair regeneration is observed at thirtieth day after the administration of the sample solution.
The number x of the hair growth in the table 3 means that the hair regeneration condition is observed at the x'th day after the high dosage level is administrated on the dorsal skin. For instance, the number (x=5) means that the hair growth is observed at fifth day. Furthermore, the symbol NA represents the need for further analysis. […] In addition, the “negative” represents no hair growth by using the peptide in accordance with the experimental number.
For assay [2], the system named is Wnt3a in the hair follicle stem cells. In words: immuno-fluorescent staining, Wnt3a marker. The assay is classed as in vivo, mouse. The note with it: FIG. 4. As for the experimental part: (§1) After the female C57BL/6 mice are injected with the SEQ ID No. 1 peptide, the immuno-fluorescent staining with the marker CK15 is performed so as to observe whether the genes, such as Wnt3a, Wnt/β-catenin are activated or not.
(§2) Thus, the SEQ ID No: 1 peptide enables activation of the regeneration of the hair follicle stem cells. In order to realize how the SEQ ID No: 1 peptide activates the regeneration of the hair follicle stem cells, the immuno-fluorescent staining in accordance with Win/β-catenin signal transduction pathway is performed. […] Since β-catenin is a downstream gene of Wnt signal transduction pathway, activating β-catenin allows the initiation of a Wnt signal transduction pathway so as to regenerate the hair follicle stem cell. […] In other words, the SEQ ID No: 1 peptide may activate the Wnt/β-catenin signal transduction pathway to activate the regeneration of the hair follicle stem cells.

The subject of assay [3] is Wnt7b gene expression in macrophages. As to the kind of experiment: RT-PCR analysis in macrophages, Wnt7b. The format is cell-based, human. The note with it: 200 μM peptide for 8 hours. As for the experimental part: (§3) The SEQ ID No. 1 peptide is treated in HHFK, HaCaT and human macrophage to study the hair growth mechanism induced by the SEQ ID No. 1 peptide. In the present disclosure, Human Hair Follicular Keratinocytes (HHFK), HaCaT Keratinocyte and macrophages are used as cell models for realizing the mechanism. Reporter assay and QRT-PCR are used as bioactivity assays to identify how the SEQ ID No. 1 peptide improves hair growth. After macrophages are treated with the 200 μM SEQ ID No: 1 peptide (iPept-1) for 8 hours, gene regulation of Wnt family (Wnt1, Wnt2, Wnt3a, Wnt4, Wnt6, Wnt7a, Wnt7b, Wnt10a, Wnt10b, Wnt16) are detected by RT-PCR and QRT-PCR tests as shown in FIGS. 8 and 9. It is observed that the transcription level of Wnt16 and Wnt7b increases in accordance with the treatment of iPept-1.

Assay [4] relates to β-catenin activity in HaCaT Keratinocytes. As to the kind of experiment: TCF reporter assay in HaCaT Keratinocyte cell line. The assay is classed as cell-based. The note with it: HaCaT cells, 200 μM peptide, TOP/FOP reporter, FIG. 7; listed as SEQ ID No: 1. The method, then: FIG. 7 illustrates a schematic view of a TCF reporter assay in HaCaT Keratinocyte cell line. TOP represents that the reporter gene has a functional binding site where β-catenin is bound. […] CTL represents that HaCaT Keratinocytes are not treated with any stimulant. iPept-1 means that HaCaT Keratinocytes are treated with the SEQ ID No: 1 peptide.
(§4) In the present disclosure, Human Hair Follicular Keratinocytes (HHFK), HaCaT Keratinocyte and macrophages are used as cell models for realizing the mechanism. Reporter assay and QRT-PCR are used as bioactivity assays to identify how the SEQ ID No. 1 peptide improves hair growth.
(In general: In a reporter assay the amount or activity of a reporter protein is the signal.)

Assay [5] deals with β-catenin in the hair follicle stem cells. In words: immuno-fluorescent staining, β-catenin marker. The assay is classed as in vivo, mouse. The note with it: FIG. 5, listed as SEQ ID No: 1. As for the experimental part: as §1, §2
Assay [6] concerns Wnt16 gene expression in macrophages. In words: RT-PCR / QRT-PCR analysis in macrophages, Wnt16. The assay is classed as cell-based, human. The note with it: 200 μM peptide for 8 hours. As for the experimental part: as §3
The subject of assay [7] is β-catenin activity in Human Hair Follicular Keratinocytes (HHFK). As to the kind of experiment: TCF reporter assay in HHFK cell line. The note with it: HHFK cells, 200 μM peptide, TOP/FOP reporter, FIG. 6; listed as SEQ ID No: 1. The format is cell-based. The method, then: FIG. 6 illustrates a schematic view of a TCF reporter assay in Human Hair Follicular Keratinocytes (HHFK) cell line. TOP represents that the reporter gene has a functional binding site where β-catenin is bound. […] CTL represents that HHFK cell line is not treated with any stimulant. iPept-1 means that HHFK cell line is treated with the SEQ ID No: 1 peptide.
as §4

Assay [8] has as its system marker CK15 of the hair follicle stem cells. In words: immuno-fluorescent staining, marker CK15. The note with it: mice injected with the peptide, FIG. 3. The format is in vivo, mouse. The method, then:
as §1, §2

In the case of “FGSFGLITHTI (a designed peptide according to experiment) [P39]”, in assay [1], the “Number x (hair regeneration observed at the x'th day)” value (from here on “Number x”) was “negative”.
Same read-out and setting: the same measure for “FGSFGSITHTI (a designed peptide according to experiment) [P40]”: “negative”; for “FGSFVLITHTI (a designed peptide according to experiment) [P38]”: “negative”; for “FGSHVLITHTI (a designed peptide according to experiment) [P37]”: “negative”.
For the substance “FGTHVLITHTI (a designed peptide according to experiment) [P36]”, the “Number x” value in assay [1] turned out to be 15 days.
Turning to “FSTHVLITHTI (a designed peptide according to experiment) [P35]”, in assay [1], the “Number x” value was 15 days.
As for “GSFGFLITHTI (a designed peptide according to experiment) [P33]”, the “Number x” value in assay [1] is listed as “negative”.
As to “GSFGSFITHTI (a designed peptide according to experiment) [P34]”, the “Number x” value in assay [1] is listed as “negative”.
As for “GSFGVLITHTI (a designed peptide according to experiment) [P32]”, in assay [1], the “Number x” value is listed as “negative”.
Take “GSFHVLITHTI (a designed peptide according to experiment) [P31]”: the “Number x” value in assay [1] is “negative”.
Consider “GSTHVLITHTI (a designed peptide according to experiment) [P30]”, for which the “Number x” value in assay [1] turned out to be 22 days.
Take “HVLIT (a designed peptide according to experiment) [P2]”: the “Number x” value in assay [1] worked out at 17 days.
In the case of “HVLITHTI (a designed peptide according to experiment) [P15]”, in assay [1], the “Number x” value was “negative”.
Take “ITHTI (a designed peptide according to experiment) [P7]”: in assay [1], the “Number x” value was found to be 17 days.
For the substance “LITHT (a designed peptide according to experiment) [P4]”, in assay [1], the “Number x” value amounted to 17 days.
As for “LITHTI (a designed peptide according to experiment) [P17]”, the “Number x” value in assay [1] stood at 22 days.
Turning to “PSTHVL (a designed peptide according to experiment) [P8]”, in assay [1], the “Number x” value is 15 days.
On the same count and under the same terms, the value for PSTHVLGSFGS [P18] was 22 days; that for “PSTHVLI (a designed peptide according to experiment) [P9]” was “negative”.
PSTHVLIFGSG [P24]: the “Number x” value in assay [1] is “negative”.
Same read-out and setting: the value for “PSTHVLIGSFG (a designed peptide according to experiment) [P19]” was “negative”; that for “PSTHVLIT (a designed peptide according to experiment) [P10]” was “negative”.
In the case of “PSTHVLITGSF (a designed peptide according to experiment) [P20]”, the “Number x” value in assay [1] is listed as “negative”.
Same read-out and setting: the same measure for “PSTHVLITGSG (a designed peptide according to experiment) [P25]”: 22 days; for “PSTHVLITH (a designed peptide according to experiment) [P11]”: 19 days.
The same measure, in the same setting: the same measure for “PSTHVLITHGS (a designed peptide according to experiment) [P21]”: 23 days; for “PSTHVLITHSG (a designed peptide according to experiment) [P26]”: 22 days.
Take “PSTHVLITHT (a designed peptide according to experiment) [P12]”: the “Number x” value in assay [1] was determined as 19 days.
As for “PSTHVLITHTG (a designed peptide according to experiment) [P22]”, in assay [1], the “Number x” value worked out at 23 days.
For the substance “PSTHVLITHTI (a designed peptide according to experiments) [P1]”, the “Number x” value in assay [1] is 17 days. In addition, in assay [2], the “activation of Wnt3a in hair follicle stem cells” value is “obviously activated”. Also, the “gene expression of Wnt7b (RT-PCR)” value was “activate the gene expression” in assay [3] (FIG. 8, listed as SEQ ID No: 1) and “increases” in assay [3] (FIG. 8, listed as iPept-1). Further, the “relative luciferase activity (activity of β-catenin)” value in assay [4] and in assay [7] was “increase the activity of β-catenin; also recorded: enhance activity of β-catenin” throughout. In assay [5], the “activation of β-catenin in hair follicle stem cells” value is “effect on activating or regenerating the hair follicle stem cells; also recorded: activated”. In addition, the “gene expression of Wnt16 (RT-PCR)” value is “activate the gene expression” in assay [6] (FIG. 8, listed as SEQ ID No: 1) and “increases” in assay [6] (FIG. 8, listed as iPept-1). The “gene expression of Wnt16 (QRT-PCR)” value in assay [6] (FIG. 9) was “enhances the gene expression”. The “activation of marker CK15 of hair follicle stem cells” value in assay [8] was “obviously activated”.
On to “PSTHVLITHTIS (a designed peptide according to experiment) [P29]”, for which the “Number x” value in assay [1] was found to be 22 days.
For the substance “PSTHVLITHTISR (a designed peptide according to experiment) [P28]”, the “Number x” value in assay [1] is listed as “negative”.
Regarding “PSTHVLITHTISRI (a designed peptide according to experiment) [P6]”, the “Number x” value in assay [1] worked out at 19 days.
Turning to “PSTHVLITHTS (a designed peptide according to experiment) [P27]”, in assay [1], the “Number x” value is reported as “negative”.
Turning to “PSTHVLLTHTI (a designed peptide according to experiments) [P41]”, in assay [1], the “Number x” value came out at 19 days.
Regarding “PSTHVLSFGSG (a designed peptide according to experiment) [P23]”, the “Number x” value in assay [1] is given as “negative”.
Consider “STHVL (a designed peptide according to experiment) [P5]”, for which, in assay [1], the “Number x” value came out at 19 days.
As to “STHVLITHTI (a designed peptide according to experiment) [P13]”, the “Number x” value in assay [1] is reported as “negative”.
Regarding “THVLITHTI (a designed peptide according to experiment) [P14]”, in assay [1], the “Number x” value is “negative”.
On the same count and under the same terms, the same measure for “VLITH (a designed peptide according to experiment) [P3]”: 17 days.
Regarding “VLITHTI (a designed peptide according to experiment) [P16]”, the “Number x” value in assay [1] is recorded as “negative”.
